Data reported in patent publication US20120177701A1, “COMPOSITIONS COMPRISING IMMUNOSTIMULATORY NUCLEIC ACIDS AND RELATED METHODS” (priority 2010, published 2012).

Experiments:
human TLR8 = target: T1, human TLR8 (Homo sapiens, UniProt Q9NR97); test: HEK-Blue hTLR8 NF-kB-inducible SEAP reporter assay (TLR8 activation); type: cell-based
T1 construct: host or cells: HEK293 (HEK-Blue hTLR8) with NF-kB-inducible SEAP reporter
T1 sequence (Q9NR97 27-1041): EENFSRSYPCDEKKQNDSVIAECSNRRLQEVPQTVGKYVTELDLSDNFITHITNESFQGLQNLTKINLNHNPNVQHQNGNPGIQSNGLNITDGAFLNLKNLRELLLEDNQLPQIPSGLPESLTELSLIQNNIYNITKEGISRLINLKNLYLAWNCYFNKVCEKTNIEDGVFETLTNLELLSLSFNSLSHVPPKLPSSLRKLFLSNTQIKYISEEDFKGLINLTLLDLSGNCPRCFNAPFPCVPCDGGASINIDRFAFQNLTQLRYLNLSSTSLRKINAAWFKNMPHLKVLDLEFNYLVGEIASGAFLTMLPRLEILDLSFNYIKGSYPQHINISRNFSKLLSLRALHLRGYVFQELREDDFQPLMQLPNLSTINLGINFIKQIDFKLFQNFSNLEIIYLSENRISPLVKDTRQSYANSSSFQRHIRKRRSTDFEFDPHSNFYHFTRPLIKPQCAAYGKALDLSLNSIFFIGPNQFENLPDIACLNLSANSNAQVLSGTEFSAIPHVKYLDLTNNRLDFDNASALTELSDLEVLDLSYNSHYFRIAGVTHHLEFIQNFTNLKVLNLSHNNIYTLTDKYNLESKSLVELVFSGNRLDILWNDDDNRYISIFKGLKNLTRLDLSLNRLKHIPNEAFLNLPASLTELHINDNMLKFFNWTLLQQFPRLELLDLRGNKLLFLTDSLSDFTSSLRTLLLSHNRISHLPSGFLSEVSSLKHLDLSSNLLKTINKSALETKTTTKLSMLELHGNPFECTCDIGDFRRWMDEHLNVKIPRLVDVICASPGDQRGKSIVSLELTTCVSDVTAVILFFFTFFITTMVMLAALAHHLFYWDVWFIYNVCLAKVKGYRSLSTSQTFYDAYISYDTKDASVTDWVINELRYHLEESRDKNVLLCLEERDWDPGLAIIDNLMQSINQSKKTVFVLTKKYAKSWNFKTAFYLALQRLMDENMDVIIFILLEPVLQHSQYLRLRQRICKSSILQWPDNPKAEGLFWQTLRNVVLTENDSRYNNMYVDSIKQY

J774 murine macrophages = test: TNF-α induction in mouse macrophage cell line J774; type: cell-based
Description: Induction of TNF-α by macrophages is a hallmark of human TLR8 activation (Forsbach et al., 2008, J. Immunol., 180:3729-38; Ghosh et al., 2007, Int. Immunopharmacol., 7:1111-21; Gorden et al., 2005, J. Immunol., 174:1259-68). […] In the following experiment mouse macrophage cell line, J774, has been transfected by test ribonucleotides as described above for HEK-Blue™ hTLR8 cells (with the exception that 2-10×10^4 cells/well were used) and TNF-α was measured in culture supernatants at 16-20 hours after transfection.

murine splenocytes = test: Immune cell activation (CD69 expression, FACS) in murine splenocytes; type: cell-based, mouse; settings: 20 hours; for activation of immune cell populations (CD69 expression) / immune cell activation compared with R848 and control oligonucleotide: 200 nM DOTAP-complexed; for immune cell activation compared with R848 and control oligonucleotide: R848 1 μM; for NKT cell activation (CD69) / T cell activation (CD69) / granulocyte activation (CD69): compared with R848 1 μM
Description: In addition, upon removal of the supernatant at 20 hours post-incubation, the mouse cells were stained for the following cell markers: GR1, F4/80, CD11c, CD220, CD3, Ly49b, and CD69, and analyzed by FACS. Different immune cell populations were distinguished as follows: macrophages (F4/80^+/GR1^−); plasmacytoid dendritic cells or pDC (CD11c^+/CD220^+); B cells (CD220^+/CD11c^−); NK (CD3^−/Ly49b^+); myeloid DC or mDC ([…]); granulocytes (eosinophils) (GR1^+high/F4/80^−); T cells (CD3^+); and NKT cells (CD3^+/Ly49b^+). All immune cell populations were quantified by the expression of CD69 (am early activation marker).

| Substance | TLR8 activation (fold increase of SEAP induction over the background), described in words (human TLR8) | TNF-α induction, described in words (J774 murine macrophages) | concentration at which TNF-α induction reached plateau (J774 murine macrophages) [nM] | activation of immune cell populations (CD69 expression) (murine splenocytes) | immune cell activation compared with R848 and control oligonucleotide (murine splenocytes) | NKT cell activation (CD69) (murine splenocytes; 200 nM) | T cell activation (CD69) (murine splenocytes; 200 nM) | granulocyte activation (CD69) (murine splenocytes; 200 nM) | B-cell activation (CD69) (murine splenocytes; 200 nM, compared with R-0006) | macrophage activation (CD69) (murine splenocytes; 200 nM, compared with R-0006) |
| --- | --- | --- | --- | --- | --- | --- | --- | --- | --- | --- |
| 5′-GUUUAUCUGUGUG----------CAGUUUAAAC-3′ (GUUUAUCUGUGUGCAGUUUAAAC; phosphorothioate, further chemistry not given here) [SL-0020, dashes signify deleted nucleotides] | activity similar or exceeding that of SL-0004 | most potent | 300 | – | – | – | – | – | – | – |
| 5′-UUAUUUUGUUUUUAAUAUUUC-3′ (phosphorothioate backbone, further chemistry not given here) [SL-0011] | – | – | – | induced activation in most of the tested immune cell populations | at least comparable to that generated by treatment with 1 μM of R848, and usually exceeded the effects exhibited by the control oligonucleotide R-0006 | exceeded the activation observed for R848 | exceeded the activation observed for R848 | exceeded the activation observed for R848 | especially higher than the activation observed for R-0006 | especially higher than the activation observed for R-0006 |
| 5′-CUGUGUGAACGAUAGUGCAG-3′ (phosphorothioate, further chemistry not given here) [SL-0019, phosphorothioated ribonucleotide derived from SL-0004] | markedly weaker | weaker than the level of induction observed for the other oligonucleotides | – | – | – | – | – | – | – | – |
| 5′-AUUUAUUUUUAAAUUUUUGUGU-3′ (phosphorothioate, further chemistry not given here) [SL-0023, phosphorothioated ribonucleotide completely contained within SL-0005] | even stronger activity than the parental SL-0005 sequence | – | – | – | – | – | – | – | – | – |
| 5′-AGAUGUUA--UUGUUU-AAUAUUU-3′ (AGAUGUUAUUGUUUAAUAUUU; phosphorothioate backbone, further chemistry not given here) [SL-0014, phosphorothioated ribonucleotide from SL-0001; dashes signify deleted nucleotides] | – | – | – | induced activation in most of the tested immune cell populations | at least comparable to that generated by treatment with 1 μM of R848, and usually exceeded the effects exhibited by the control oligonucleotide R-0006 | exceeded the activation observed for R848 | exceeded the activation observed for R848 | exceeded the activation observed for R848 | – | especially higher than the activation observed for R-0006 |
| 5′-UUAUUUUGUUUUUAAUAUUU-3′ (phosphorothioate backbone, further chemistry not given here) [SL-0012] | – | – | – | induced activation in most of the tested immune cell populations | at least comparable to that generated by treatment with 1 μM of R848, and usually exceeded the effects exhibited by the control oligonucleotide R-0006 | exceeded the activation observed for R848 | exceeded the activation observed for R848 | exceeded the activation observed for R848 | – | especially higher than the activation observed for R-0006 |
